Laboratory results published in the NIST ThermoML archive (doi:10.1016/j.fluid.2007.07.016).

Assay: xn = mol fraction of the nth substance listed
Details: 101 kPa, Liquid; for viscosity: Capillary tube (Ostwald / Ubbelohde) method; for speed of sound: Linear variable-path acoustic interferometer

C1CCOC1 [tetrahydrofuran] + Cc1ccccc1
Details | speed of sound, 288.15 K [m/s] | speed of sound, 298.15 K [m/s] | speed of sound, 308.15 K [m/s] | speed of sound, 318.15 K [m/s] | viscosity, 288.15 K [mPa·s] | viscosity, 298.15 K [mPa·s] | viscosity, 308.15 K [mPa·s] | viscosity, 318.15 K [mPa·s]
x1 = 0.0718 | 1357.7 | 1309.4 | 1264.6 | 1219.3 | 0.6406 | 0.5513 | 0.5013 | 0.4399
x1 = 0.1498 | 1356.3 | 1307.9 | 1262.7 | 1217.3 | 0.635 | 0.5491 | 0.5003 | 0.4415
x1 = 0.2283 | 1354.6 | 1306.2 | 1260.7 | 1215.2 | 0.6285 | 0.5459 | 0.498 | 0.4421
x1 = 0.2902 | 1353.1 | 1304.8 | 1259.1 | 1213.5 | 0.6231 | 0.5431 | 0.4956 | 0.4418
x1 = 0.3452 | 1351.7 | 1303.4 | 1257.6 | 1212 | 0.6176 | 0.5398 | 0.4929 | 0.4408
x1 = 0.4005 | 1350.1 | 1302 | 1255.9 | 1210.4 | 0.6113 | 0.5357 | 0.4894 | 0.4388
x1 = 0.4694 | 1347.8 | 1299.9 | 1253.7 | 1208.2 | 0.6027 | 0.5298 | 0.484 | 0.4352
x1 = 0.5368 | 1345.4 | 1297.7 | 1251.4 | 1205.9 | 0.5934 | 0.523 | 0.4775 | 0.4307
x1 = 0.6067 | 1342.8 | 1295.2 | 1248.8 | 1203.4 | 0.5834 | 0.5155 | 0.4704 | 0.4253
x1 = 0.6704 | 1340.1 | 1292.8 | 1246.3 | 1200.9 | 0.5736 | 0.508 | 0.463 | 0.4196
x1 = 0.7378 | 1337 | 1289.9 | 1243.5 | 1198.3 | 0.5626 | 0.4993 | 0.4544 | 0.4125
x1 = 0.8018 | 1333.8 | 1287 | 1240.7 | 1195.7 | 0.5515 | 0.4903 | 0.4453 | 0.405
x1 = 0.8714 | 1330.2 | 1284 | 1237.6 | 1192.8 | 0.5387 | 0.4797 | 0.4346 | 0.3957
x1 = 0.9368 | 1326.6 | 1280.7 | 1234.5 | 1190 | 0.5259 | 0.469 | 0.4237 | 0.3861
x1 = 1 | 1323.1 | 1277.6 | 1231.5 | 1187.2 | 0.5129 | 0.458 | 0.4125 | 0.3762

Cc1ccccc1C [1,2-dimethylbenzene] + C1CCOC1
Details | speed of sound, 288.15 K [m/s] | speed of sound, 298.15 K [m/s] | speed of sound, 308.15 K [m/s] | speed of sound, 318.15 K [m/s] | viscosity, 288.15 K [mPa·s] | viscosity, 298.15 K [mPa·s] | viscosity, 308.15 K [mPa·s] | viscosity, 318.15 K [mPa·s]
x2 = 0 | 1388.5 | 1350.3 | 1321.4 | 1285.8 | 0.8623 | 0.7576 | 0.669 | 0.5972
x2 = 0.0764 | 1384.3 | 1345.1 | 1314.5 | 1277.9 | 0.8385 | 0.738 | 0.6535 | 0.585
x2 = 0.1504 | 1380 | 1340 | 1307.8 | 1270.2 | 0.8155 | 0.7192 | 0.6384 | 0.573
x2 = 0.2243 | 1375.7 | 1335 | 1301.1 | 1262.7 | 0.7919 | 0.6998 | 0.6226 | 0.5602
x2 = 0.2942 | 1371.4 | 1330 | 1294.8 | 1255.6 | 0.769 | 0.6807 | 0.6067 | 0.5471
x2 = 0.366 | 1366.9 | 1324.9 | 1288.3 | 1248.4 | 0.7451 | 0.6606 | 0.59 | 0.5331
x2 = 0.4226 | 1363.4 | 1320.9 | 1283.2 | 1242.8 | 0.726 | 0.6445 | 0.5764 | 0.5216
x2 = 0.4801 | 1359.7 | 1316.7 | 1278 | 1237.1 | 0.7063 | 0.6277 | 0.5621 | 0.5094
x2 = 0.531 | 1356.3 | 1313 | 1273.4 | 1232.1 | 0.6888 | 0.6127 | 0.5493 | 0.4981
x2 = 0.585 | 1352.6 | 1309 | 1268.5 | 1226.8 | 0.6694 | 0.5959 | 0.5348 | 0.4856
x2 = 0.6578 | 1347.6 | 1303.6 | 1262 | 1219.7 | 0.6432 | 0.5731 | 0.515 | 0.4684
x2 = 0.7322 | 1342.5 | 1298 | 1255.4 | 1212.5 | 0.6159 | 0.5493 | 0.4941 | 0.4498
x2 = 0.8049 | 1337.4 | 1292.5 | 1248.9 | 1205.6 | 0.5887 | 0.5253 | 0.4729 | 0.431
x2 = 0.8708 | 1332.6 | 1287.5 | 1243 | 1199.3 | 0.5635 | 0.503 | 0.453 | 0.413
x2 = 0.9392 | 1327.7 | 1282.3 | 1236.9 | 1192.9 | 0.537 | 0.4794 | 0.4319 | 0.394

Cc1cc(C)cc(C)c1 [1,3,5-trimethylbenzene] + C1CCOC1
Details | speed of sound, 288.15 K [m/s] | speed of sound, 298.15 K [m/s] | speed of sound, 308.15 K [m/s] | speed of sound, 318.15 K [m/s] | viscosity, 288.15 K [mPa·s] | viscosity, 298.15 K [mPa·s] | viscosity, 308.15 K [mPa·s] | viscosity, 318.15 K [mPa·s]
x2 = 0 | 1412.3 | 1369.8 | 1325.2 | 1279 | 0.7592 | 0.6572 | 0.5792 | 0.5066
x2 = 0.0735 | 1406.8 | 1363.6 | 1318.5 | 1272.2 | 0.7428 | 0.6449 | 0.5698 | 0.5004
x2 = 0.1513 | 1400.3 | 1356.6 | 1311.2 | 1264.9 | 0.7259 | 0.6321 | 0.5602 | 0.4943
x2 = 0.2274 | 1393.5 | 1349.5 | 1303.9 | 1257.7 | 0.7089 | 0.6192 | 0.5502 | 0.4875
x2 = 0.2986 | 1386.7 | 1342.4 | 1296.7 | 1250.6 | 0.6927 | 0.6066 | 0.5402 | 0.4805
x2 = 0.3672 | 1379.7 | 1335.3 | 1289.6 | 1243.6 | 0.6767 | 0.594 | 0.5301 | 0.4732
x2 = 0.4305 | 1373.5 | 1328.9 | 1283.1 | 1237.3 | 0.6616 | 0.5821 | 0.5203 | 0.4658
x2 = 0.4912 | 1367.5 | 1322.9 | 1277 | 1231.5 | 0.647 | 0.5703 | 0.5106 | 0.4583
x2 = 0.5496 | 1361.9 | 1317.3 | 1271.4 | 1226 | 0.6326 | 0.5586 | 0.5008 | 0.4507
x2 = 0.6055 | 1356.8 | 1312 | 1266.1 | 1220.8 | 0.6186 | 0.5472 | 0.4911 | 0.4429
x2 = 0.6784 | 1350.4 | 1305.4 | 1259.4 | 1214.4 | 0.6 | 0.5318 | 0.4779 | 0.4322
x2 = 0.7516 | 1344 | 1298.8 | 1252.8 | 1207.9 | 0.5809 | 0.5159 | 0.4642 | 0.4208
x2 = 0.828 | 1337.4 | 1292.1 | 1246 | 1201.2 | 0.5609 | 0.499 | 0.4494 | 0.4084
x2 = 0.879 | 1333.2 | 1287.7 | 1241.6 | 1196.9 | 0.5469 | 0.4872 | 0.4388 | 0.3992
x2 = 0.9412 | 1328.2 | 1282.6 | 1236.4 | 1191.8 | 0.5299 | 0.4726 | 0.4258 | 0.3879
